Measurements reported in ChEMBL document CHEMBL1138798, “A docking score function for estimating ligand-protein interactions: application to acetylcholinesterase inhibition” (J Med Chem, 2004).

Experiments:
[1] = biological target: T1, Acetylcholinesterase (Homo sapiens, UniProt P22303)
Description: Inhibitory activity against Acetylcholinesterase enzyme using human AChE assay

[2] = biological target: T1, Acetylcholinesterase; remark: listed apart in the source
Description: Binding affinity towards Acetylcholinesterase

T1 sequence (P22303 whole entry): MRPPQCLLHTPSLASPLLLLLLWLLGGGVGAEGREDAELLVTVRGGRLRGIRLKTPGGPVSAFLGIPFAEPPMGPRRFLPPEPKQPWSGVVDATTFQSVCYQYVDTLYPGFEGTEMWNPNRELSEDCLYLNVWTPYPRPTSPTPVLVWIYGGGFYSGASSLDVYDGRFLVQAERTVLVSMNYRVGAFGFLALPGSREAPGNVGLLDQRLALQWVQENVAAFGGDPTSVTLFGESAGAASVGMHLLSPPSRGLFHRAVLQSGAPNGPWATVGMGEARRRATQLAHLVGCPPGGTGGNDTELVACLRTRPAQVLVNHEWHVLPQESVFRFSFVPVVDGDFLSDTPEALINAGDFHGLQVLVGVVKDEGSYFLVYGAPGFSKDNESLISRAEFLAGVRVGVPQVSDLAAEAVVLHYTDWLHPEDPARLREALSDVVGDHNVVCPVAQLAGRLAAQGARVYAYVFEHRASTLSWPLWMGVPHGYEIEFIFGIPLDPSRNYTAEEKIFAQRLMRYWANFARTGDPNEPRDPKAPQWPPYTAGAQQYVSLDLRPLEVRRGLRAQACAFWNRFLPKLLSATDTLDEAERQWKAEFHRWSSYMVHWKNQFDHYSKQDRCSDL

| Compound | IC50 [1] [nM] | Ki [2] [nM] |
| --- | --- | --- |
| COc1cc2c(cc1OC)C(=O)C(C1CC[N+](C)(Cc3ccccc3)CC1)=C2 (stereo unspecified) | 250 | 251 |
| COc1cc2cc(C(=O)C3CC[N+](C)(Cc4ccccc4)CCC3OC)sc2cc1OC (stereo unspecified) | 120 | 120 |
| COc1cc2c(cc1OC)SC(C(=O)CC1C=CC[N+](C)(Cc3ccccc3)CC1)C2 (stereo unspecified) | 750 | 759 |
| COc1cc2cc(C(=O)C3CCC[N+](C)(Cc4ccccc4)CC3)sc2cc1OC (stereo unspecified) | 8 | 7.94 |
| CCOCC[n+]1ccc(CCC(=O)C2Cc3cc(OC)c(OC)cc3S2)cc1 (stereo unspecified) | 7 | 7.08 |
| CCC[n+]1ccc(CCC(=O)C2Cc3cc(OC)c(OC)cc3S2)cc1 (stereo unspecified) | 2570 | 2570 |
| COc1cc2c(cc1OC)SC(CC1CC[N+](C)(Cc3ccccc3)CC1)C2 (stereo unspecified) | 30000 | 30200 |
| COc1cc2c(cc1OC)SC(C(=O)CC(O)C1CC[N+](C)(Cc3ccccc3)CC1)C2 (stereo unspecified) | 190 | 191 |
| COc1cc2cc(C3CC[N+](C)(Cc4ccccc4)CC3O)sc2cc1OC (stereo unspecified) | 19600 | 19500 |
| COc1cc2c(cc1OC)SC(C(=O)CCc1cc[n+](Cc3ccc(F)cc3)cc1)C2 (stereo unspecified) | 2.6 | 2.57 |
| COc1cc2cc(C(=O)C3=CC[N+](C)(Cc4ccccc4)CC3)sc2cc1OC (stereo unspecified) | 520 | 525 |
| COc1cc2cc(C(=O)C3CCC[N+](C)(CC#N)CC3)sc2cc1OC (stereo unspecified) | 1000 | 1000 |
| COC(=O)C[N+]1(C)CCC(CCC(=O)C2Cc3cc(OC)c(OC)cc3S2)CC1 (stereo unspecified) | 54 | 53.7 |
| CC[n+]1ccc(CCC(=O)C2Cc3cc(OC)c(OC)cc3S2)cc1 (stereo unspecified) | 280 | 282 |
| COc1cc2onc(CCC3CCN(Cc4ccccc4)CC3)c2cc1C | 5.8 | 5.75 |
| C=CC[n+]1ccc(CCC(=O)C2Cc3cc(OC)c(OC)cc3S2)cc1 (stereo unspecified) | 6.27 | 219 |
| COc1cc2c(cc1OC)SC(C(=O)CCc1cc[n+](CC3CC3)cc1)C2 (stereo unspecified) | 110 | 110 |
| COCC[n+]1ccc(CCC(=O)C2Cc3cc(OC)c(OC)cc3S2)cc1 (stereo unspecified) | 30 | 30.2 |
| COc1cc2cc(C3=CC[N+](C)(Cc4ccccc4)CC3)sc2cc1OC (stereo unspecified) | 2670 | 2690 |
| C[N+]1(Cc2ccccc2)CCC(CCC(=O)c2ccc3c(c2)OCO3)CC1 (stereo unspecified) | 41.5 | 41.7 |
| C[N+]1(Cc2ccccc2)CCC(CCC(=O)c2ccc3c(c2)CCCCO3)CC1 (stereo unspecified) | – | 138 |
| O=C1Cc2cc3onc(CCC4CCN(Cc5ccccc5)CC4)c3cc2N1 | – | 0.955 |
| O=C1CCc2cc3c(CCC4CCN(Cc5ccccc5)CC4)noc3cc2N1 | – | 0.575 |

| Compound | IC50 [1] [nM] | Ki [2] [nM] |
| --- | --- | --- |
| Brc1ccc2c(CCC3CCN(Cc4ccccc4)CC3)noc2c1 | – | 50.1 |
| COc1cc2cc(C(=O)C3CC[N+](C)(Cc4ccccc4)CCC3O)sc2cc1OC (stereo unspecified) | 43 | 42.7 |
| COc1cc2cc(C(=O)CC3CCCC[N+](C)(Cc4ccccc4)CC3)sc2cc1OC (stereo unspecified) | 110 | 110 |
| COc1cc2c(cc1OC)SC(C(=O)CCc1cc[n+](Cc3ccsc3)cc1)C2 (stereo unspecified) | 6 | 6.03 |
| O=C(CCc1cc[n+](Cc2ccccc2)cc1)c1ccc2c(c1)OCO2 | 240 | 240 |
| COCC[N+]1(C)CCCC(C(=O)c2cc3cc(OC)c(OC)cc3s2)CC1 (stereo unspecified) | 53 | 52.5 |
| COc1cc2cc(C(=O)C3CCC[N+](C)(CC(=O)OC(C)(C)C)CC3)sc2cc1OC (stereo unspecified) | 79 | 79.4 |
| COc1cc2c(cc1OC)SC(C(=O)CCc1cc[n+](CC3CCC3)cc1)C2 (stereo unspecified) | 40 | 39.8 |
| COc1cc2c(cc1OC)SC(C(=O)CCc1cc[n+](C)cc1)C2 (stereo unspecified) | 900 | 891 |
| CN1C(=O)Cc2cc3onc(CCC4CCN(Cc5ccccc5)CC4)c3cc21 | 0.48 | 0.479 |
| COc1cc2cc(C(=O)CCC3CC[N+](C)(Cc4ccccc4)CC3)n(C)c2cc1OC (stereo unspecified) | – | 120 |
| Cc1ccc2onc(CCC3CCN(Cc4ccccc4)CC3)c2c1 | – | 7.76 |
| COc1cc2c(cc1OC)SC(C(=O)CCc1cc[n+](Cc3coc([N+](=O)[O-])c3)cc1)C2 (stereo unspecified) | 4.5 | 4.47 |
| COc1cc2cc(C(=O)C3CCC[N+](C)(Cc4ccc([N+](=O)[O-])o4)CC3)sc2cc1OC (stereo unspecified) | 32 | 32.4 |
| C[N+]1(Cc2ccccc2)CCC(CCC(=O)c2ccc3c(c2)OCCO3)CC1 (stereo unspecified) | – | 100 |
| Cc1cc(C(=O)CCC2CC[N+](C)(Cc3ccccc3)CC2)nn1-c1ccccc1 (stereo unspecified) | – | 21.9 |
| COc1ccc2cc(C(=O)CCC3CC[N+](C)(Cc4ccccc4)CC3)ccc2c1 (stereo unspecified) | – | 50.1 |
| CC(=O)Nc1ccc2c(CCC3CCN(Cc4ccccc4)CC3)noc2c1 | – | 2.82 |
| N#Cc1ccc2c(CCC3CCN(Cc4ccccc4)CC3)noc2c1 | – | 100 |
| O=S(=O)(Nc1ccc2c(CCC3CCN(Cc4ccccc4)CC3)noc2c1)c1ccccc1 | – | 14.1 |
| O=C1Cc2c(ccc3c(CCC4CCN(Cc5ccccc5)CC4)noc23)N1 | – | 3.63 |
| O=C1Cc2cc3c(CCC4CCN(Cc5ccccc5)CC4)noc3cc2N1 [ICOPEZIL] | – | 0.331 |
